Results taken from US20230285516A1 (priority 2020, published 2023).

Tests used:
mice with CIA = test: Histopathological analysis of hind legs, collagen-induced arthritis (CIA) models; type: in vivo; details: H&E and PAS, intramuscular weekly for 6 weeks
Description: (§1) Early Arthritis Model. Fifty mice with the same characteristics were immunized at the base of the tail with 100 μg of chicken type II collagen emulsified in complete Freund's adjuvant. The boost was applied on day 21 at the base of the tail with 100 μg of type II collagen emulsified with Freund's incomplete adjuvant. On the same boosting day, the treatments (a-d) were applied every week for six weeks. Three animals were euthanized in the sixth week and three in the thirteenth week. The spleen, lymph nodes, joint tissue, liver, lungs, kidneys and heart were obtained in order to assess the inflammatory infiltrate, the predominant cell populations and the expression of pro- and anti-inflammatory cytokines.
(§2) Established Arthritis Model. Arthritis was induced as in the previous model in 50 mice and the treatments were applied intramuscularly, after 2 weeks of the boost, every week for 6 weeks. Three animals were euthanized in the eighth week and three in the fifteenth week. The spleen, lymph nodes, joint tissue, liver, lungs, kidneys and heart were obtained in order to assess the inflammatory infiltrate, the predominant cell populations and the expression of pro- and anti-inflammatory cytokines.
Histological evaluation. The inflammatory infiltrate and tissue architecture were evaluated by H&E and Masson's trichrome staining and the content of proteoglycans, with the PAS technique. […]

Treg (CD4+/FOXP3+) cells = test: FACS of spleen Foxp3+ regulatory T cells in CIA models; type: in vivo, mice; details: early and long-standing arthritis, first and second sacrifice, vs placebo
Description: as §1, §2
Cytometric evaluation. Using FACS, the percentage of populations of Th1 ([…]), Th2 (CD4^+/IL-4^+), Treg (CD4^+/FOXP3^+) Th17 (CD4^+/IL-17^+) and dendritic (CD4−/CD11c^+) cells in spleen cells.
FIG. 10. Effect of type I polymerized collagen in the early (preventive) and long-standing (late or palliative) arthritis model on the percentage of spleen CD4+ T cell subpopulations. (A) Spleen cells obtained ex vivo in the early arthritis model during the first sacrifice. (B) Spleen cells obtained ex vivo in the early arthritis model during the second sacrifice. (C) Spleen cells obtained ex vivo in the long-standing arthritis model during the first sacrifice. […] The intracellular production of IL-17A, IL-4, IFN-γ and Foxp3 by CD4+ T cells was detected by flow cytometry. The results are representative of 6 mice analyzed in each group. […]

`CN(Cc1cnc2nc(N)nc(N)c2n1)c1ccc(C(=O)N[C@@H](CCC(=O)O)C(=O)O)cc1` [MTX, methotrexate, reference compound] was tested, and the “histopathology of joint tissue (inflammation, tissue architecture)” value (mice with CIA) was “induced some tissue abnormalities” and the “Foxp3+ regulatory T cells” value (Treg (CD4+/FOXP3+) cells) was “significant reduction”.
